Source: patent US20250228878A1, “METHOD FOR THE SYNTHESIS OF EVOC PROBES” (OWLSTONE MEDICAL LIMITED, priority 2021, published 2025)

Experiments:
blood cells = experiment: D5-ethanol release in blood incubated with D5-EG or D5-EG-ME (headspace measurement); type: cell-based; settings: human blood, 37° C., 2 hours
Experimental: Aim—The following experiment was performed to compare the levels of D5-ethanol produced by blood cells from both D5-ethyl-βD-glucuronide and the D5-ethyl-βD-glucuronide-methyl ester impurity. To understand how the probe behaves in human blood. To determine the background cleavage of the probe (D5-ethyl-βD-glucuronide) and the methyl ester (D5-ethyl-βD-glucuronide-methyl ester) in blood at different concentrations. The cleaved D5-ethanol was extracted from the headspace of the blood and measured with the D5-ethanol analytical method.
• Dilute D5-ethyl-βD-glucuronide in PBS to 1 ug/ul. • Dilute 10 ul of this in 90 ul PBS to 100 ng/ul to use for smaller doses. • Blood drawn on the same day will be despatched to OML after it has been screened. • Aliquot 600 ul of blood into ITEX headspace vials. 10 vials for probe samples and 10 vials for methyl ester samples. • Add indicated concentration of D5-ethyl-βD-glucuronide (Table 1) and D5-ethyl-bD-glucuronide meth methyl ester (Table 2) in each vial. • Incubate all samples at 37° C. for 2 hours in the water bath. • After 2 hours add 100 uM D-saccharic acid-1,4-lactone with a syringe through septum of each ITEX vial and mix gently to inhibit β-glucuronidase activity and put on ice (4° C.) • Place samples on ITEX autosampler and measure D5-ethanol with D5-ethanol analytical method
Results—β-glucuronidase is only expected to be present intracellularly in blood cells. D5-ethyl-βD-glucuronide (D5-EG) is not cell permeable and would therefore not enter into the cells to get cleaved by b-glucuronidase to produce D5-ethanol. Low D5-ethanol levels are therefore expected in blood when incubated with D5-ethyl-βD-glucuronide.
D5-ethyl-βD-glucuronide-methyl ester (D5-EG-ME) is expected to be more cell permeable. If this is the case it would be able to enter into the cell to get cleaved by intracellular β-glucuronidase resulting in an increased in D5-ethanol production.

[1] = test system: tumor specific extracellular β-glucuronidase; settings: healthy versus tumor bearing mice; cited from earlier work
β-glucuronidase = target: T1, β-glucuronidase (Homo sapiens, UniProt P08236); experiment: Breath test: D5-ethanol in exhaled breath after intravenous probe administration (TD-GC-MS); type: in vivo; settings: for D5-ethanol detected on breath: 2 mg/kg intravenous
T1 construct: from tissue; host or cells: in vivo, human subjects (healthy subjects and a lung cancer patient); endogenous enzyme
T1 sequence (P08236 23-651): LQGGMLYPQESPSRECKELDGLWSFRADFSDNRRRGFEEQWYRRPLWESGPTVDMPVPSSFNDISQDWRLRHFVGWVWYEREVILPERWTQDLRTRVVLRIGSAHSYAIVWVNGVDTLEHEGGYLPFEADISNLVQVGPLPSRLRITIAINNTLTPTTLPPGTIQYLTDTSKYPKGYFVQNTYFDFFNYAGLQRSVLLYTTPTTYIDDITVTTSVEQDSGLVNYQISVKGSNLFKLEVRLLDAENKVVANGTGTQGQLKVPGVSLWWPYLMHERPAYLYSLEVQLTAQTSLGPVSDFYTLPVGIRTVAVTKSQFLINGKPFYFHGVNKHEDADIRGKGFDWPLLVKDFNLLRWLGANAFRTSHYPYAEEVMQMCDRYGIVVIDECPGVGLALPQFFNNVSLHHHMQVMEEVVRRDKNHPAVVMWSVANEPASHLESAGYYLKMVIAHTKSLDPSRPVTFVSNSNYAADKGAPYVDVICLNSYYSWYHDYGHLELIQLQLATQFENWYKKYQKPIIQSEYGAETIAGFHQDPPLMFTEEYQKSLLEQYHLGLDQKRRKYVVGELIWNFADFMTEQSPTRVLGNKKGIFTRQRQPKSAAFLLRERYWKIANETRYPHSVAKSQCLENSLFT
Experimental: D5-ethyl-βD-glucuronide was administered to healthy subjects and a lung cancer patient at a concentration of 2 mg/kg. Administration was intravenous.
The concentration of the metabolite was then measured in breath samples. Breath samples were collected using ReCIVA® Breath Sampler at the indicated times following probe administration. Following breath collection sorbent tubes were removed from ReCIVA®, capped off and sent to Owlstone Medical for analysis. At Owlstone Medical the sorbent tubes were analysed for D5-ethanol using TD-GC-MS.

[2] = highest concentration tested (FIG. 2)

Structure (SMILES)	D5-ethanol production from blood cells (blood cells; [2])	D5-ethanol production from blood cells (blood cells; second highest concentration tested (FIG. 2))	D5-ethanol signal in breath [1]	D5-ethanol detected on breath (β-glucuronidase; healthy controls)	D5-ethanol detected on breath (β-glucuronidase; lung cancer patient (Stage IIA))	earliest time at which the metabolite (D5-ethanol) can be detected in breath after administration (β-glucuronidase; lung cancer patient, 2 mg/kg intravenous (FIG. 6)) [min]
[2H]C([2H])([2H])C([2H])([2H])O[C@@H]1O[C@H](C(=O)OC)[C@@H](O)[C@H](O)[C@H]1O [D5-EG-ME, D5-ethyl-βD-glucuronide-methyl ester]	much higher D5-ethanol levels produced	much higher D5-ethanol levels produced	–	–	–	–
[2H]C([2H])([2H])C([2H])([2H])O[C@@H]1O[C@H](C(=O)O)[C@@H](O)[C@H](O)[C@H]1O [D5-EG, D5-ethyl-βD-glucuronide]	only a small amount of D5-ethanol were produced	–	discriminatory D5-ethanol signal in the breath of mice with tumors	No D5-ethanol was detected	A D5 ethanol signal was detected	10
